Experimental data taken from patent US10206907B2, “Compounds useful for the treatment of degenerative and inflammatory diseases” (GALAPAGOS NV, priority 2008, dated 2019).

Tests used:
[1] = target: Recombinant human JAK1 catalytic domain (Homo sapiens (Human), UniProt P23458); assay: JAK1 inhibition assay; format: biochemical; settings: semi-quantitative score
How it was run: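 Radiometric assay read by scintillation counting after phosphoric-acid washes. Percent inhibition calculated from cpm relative to vehicle and 10 μM staurosporine control. IC50 derived from compound dose-dilution series.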

[2] = Microsomal stability, human liver microsomes; format: in vitro ADME; settings: percentage of compound remaining after 60 minutes, 3 μM compound
How it was run: (§1)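 Compound was incubated with liver microsomes plus an NADP+/glucose-6-phosphate/G6PDH/MgCl2 regenerating system at 37°C for 1 h. Reactions were stopped 1:1 with MeOH or ACN and analysed by LCMS.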

[3] = Microsomal stability, rat liver microsomes; format: in vitro ADME; settings: percentage of compound remaining after 60 minutes, 3 μM compound
How it was run: as §1

[4] = Caco2 permeability (bi-directional); format: in vitro ADME, human; settings: human, pH 7.4; for Papp A→B at 1 h, 10 µM: Caco-2, apical to basolateral, read-out: Papp (A2B); for efflux ratio at 1 h, 10 µM: Caco-2, ratio of PappB>A/PappA>B
Description: Bi-directional Caco-2 assays were performed as described below.
2×10^5 cells/well were seeded in plating medium consisting of DMEM+GlutaMAXI+1% NEAA+10% FBS (FetalClone II)+1% Pen/Strep. The medium was changed every 2-3 days.
50 μM Lucifer Yellow (Sigma) was added to the donor buffer in all wells to assess integrity of the cell layers by monitoring Lucifer Yellow permeation. As Lucifer Yellow (LY) cannot freely permeate lipophilic barriers, a high degree of LY transport indicates poor integrity of the cell layer.
After a 1 hour incubation at 37° C. while shaking at an orbital shaker at 150 rpm, 70 μL aliquots were taken from both apical (A) and basal (B) chambers and added to 100 μL1 50:50 acetonitrile:water solution containing analytical internal standard (0.5 μM carbamazepine) in a 96 well plate.
Concentrations of compound in the samples were measured by high performance liquid-chromatography/mass spectroscopy (LC-MS/MS).
The Efflux ratios, as an indication of active efflux from the apical cell surface, were calculated using the ratio of PappB>A/PappA>B.
The following assay acceptance criteria were used:
Lucifer yellow permeability: ≤100 nm/s

[5] = system: JAK-STAT signalling in HeLa cells; assay: JAK-STAT signalling assay (OSM-triggered pSTAT1(2)-luciferase reporter in HeLa cells); format: cell-based; settings: Homo sapiens; HeLa cells, OSM-triggered pSTAT1(2)-luciferase reporter; read-out: STAT signalling EC50
How it was run: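 HeLa cells transiently transfected with pSTAT1(2)-luciferase reporter plus LacZ internal control, incubated overnight at 37 °C, 10% CO2, then OSM-stimulated with compound. Luciferase read by Steadylite luminescence and normalised to β-galactosidase (ONPG); percent inhibition from controls, EC50 from dose-response.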

[6] = system: MMP13 in SW1353 cells; assay: OSM/IL-1β signaling assay (MMP13 levels in SW1353 cells); format: cell-based; settings: Homo sapiens; SW1353 cells, OSM and IL-1β triggered, MMP13 levels 48 hours after triggering; read-out: MMP13 EC50;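 note: secreted MMP13 captured by antibody, activated with APMA and its activity read by fluorescence, inhibition scaled between vehicle-treated triggered wells (0%) and untriggered wells (100%)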
[7] = target: Recombinant human JAK2 catalytic domain (Homo sapiens (Human), UniProt O60674); assay: JAK2 inhibition assay; format: biochemical; settings: semi-quantitative score
Sequence of Recombinant human JAK2 catalytic domain (O60674 808-1132): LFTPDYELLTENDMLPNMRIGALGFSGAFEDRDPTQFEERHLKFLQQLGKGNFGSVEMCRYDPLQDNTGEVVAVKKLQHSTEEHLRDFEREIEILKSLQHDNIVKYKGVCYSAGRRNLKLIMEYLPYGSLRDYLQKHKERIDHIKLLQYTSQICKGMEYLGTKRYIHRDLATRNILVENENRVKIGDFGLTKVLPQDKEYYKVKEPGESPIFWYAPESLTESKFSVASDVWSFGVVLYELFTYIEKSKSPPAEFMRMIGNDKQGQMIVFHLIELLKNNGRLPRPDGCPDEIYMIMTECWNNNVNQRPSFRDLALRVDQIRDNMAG
How it was run: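 Radiometric kinase reactions ran for 90 min at 30 °C and were stopped with phosphoric acid, then washed and counted by scintillation. Percent inhibition was set relative to vehicle and to 10 μM staurosporine background. IC50 was derived from dose-dilution series.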

Sequence of Recombinant human JAK1 catalytic domain (P23458 850-1154): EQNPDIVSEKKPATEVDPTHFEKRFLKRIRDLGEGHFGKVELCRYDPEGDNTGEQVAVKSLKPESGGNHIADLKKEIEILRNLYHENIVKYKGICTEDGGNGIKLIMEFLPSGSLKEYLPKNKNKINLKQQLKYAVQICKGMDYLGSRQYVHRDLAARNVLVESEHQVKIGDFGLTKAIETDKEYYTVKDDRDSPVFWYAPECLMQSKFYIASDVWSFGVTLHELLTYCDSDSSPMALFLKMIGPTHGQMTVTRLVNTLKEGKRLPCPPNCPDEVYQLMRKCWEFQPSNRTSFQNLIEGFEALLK

Row | Compound | IC50 [1] | Microsomal Stability Human (%) [2] | Microsomal Stability Rat (%) [3] | Papp A→B at 1 h, 10 µM [4] | efflux ratio at 1 h, 10 µM [4] | EC50 [5] | EC50 [6] | IC50 [7]
1 | O=C(NCc1cccnc1)c1ccc(-c2cccc3nc(NC(=O)C4CC4)nn23)cc1 [Compound 42, 4-(2-(cyclopropanecarboxamido)-[1,2,4]triazolo[1,5-a]pyridin-5-yl)-N-(pyridin-3-ylmethyl)benzamide] | 0.101 to 0.5 µM | *** (*** 51-75) | **** (**** 76-100) | 0.45 ×10⁻⁶ cm/s | 68.8 |  |  | 
2 | O=C(NCCc1cnn(-c2ccccc2)c1)c1ccc(-c2cccc3nc(NC(=O)C4CC4)nn23)cc1 [Compound 106, 4-(2-(cyclopropanecarboxamido)-[1,2,4]triazolo[1,5-a]pyridin-5-yl)-N-(2-(1-phenyl-1H-pyrazol-4-yl)ethyl)benzamide] | < 0.1 µM | * (* 0-25) | * (* 0-25) | 4.23 ×10⁻⁶ cm/s | 7.38 | 0.101 to 0.5 µM | 0.001 to 0.5 µM | 
3 | O=C(Nc1nc2cccc(-c3ccc(C(=O)N4CCCC(C(F)(F)F)C4)cc3)n2n1)C1CC1 (stereo not drawn) [Compound 164, N-(5-(4-(3-(trifluoromethyl)piperidine-1-carbonyl)phenyl)-[1,2,4]triazol[1,5-a]pyridin-2-yl)cyclopropanecarboxamide] | < 0.1 µM | ** (** 26-50) | ** (** 26-50) | 6.9 ×10⁻⁶ cm/s | 2.5 | > 1 µM | > 1 µM | 
4 | O=C(Nc1nc2cccc(-c3ccc(C(=O)N4CCC(F)(F)CC4)cc3)n2n1)C1CC1 [Compound 168] |  | **** (**** 76-100) | *** (*** 51-75) | 11 ×10⁻⁶ cm/s |  | > 1 µM | > 1 µM | 
5 | CC1(C)CCCN(C(=O)c2ccc(-c3cccc4nc(NC(=O)C5CC5)nn34)cc2)C1 [Compound 175, N-(5-(4-(3,3-dimethylpiperidine-1-carbonyl)phenyl)-[1,2,4]triazolo[1,5-a]pyridin-2-yl)cyclopropanecarboxamide] | < 0.1 µM | * (* 0-25) | * (* 0-25) | 6.95 ×10⁻⁶ cm/s | 2 | 0.501 to 1 µM | 0.001 to 0.5 µM | 
6 | O=C(Nc1nc2cccc(-c3ccc4c(ccn4C(=O)CCc4ccccc4)c3)n2n1)C1CC1 [Compound 179, Cyclopropanecarboxylic Acid {5-[1-(3-phenyl-propionyl)-1H-indol-5-yl]-[1,2,4]triazolo[1,5-a]pyridin-2-yl}-amide] | < 0.1 µM | * (* 0-25) | * (* 0-25) | 0.5 ×10⁻⁶ cm/s | 1 | > 1 µM |  | 
7 | Cn1cnc(COc2ccc(-c3cccc4nc(NC(=O)C5CC5)nn34)cc2)n1 [Compound 199, Cyclopropanecarboxylic acid {5-[4-(1-methyl-1H-[1,2,4]triazol-3-ylmethoxy)-phenyl]-[1,2,4]triazolo[1,5-a]pyridin-2-yl}-amide] | < 0.1 µM | **** (**** 76-100) | **** (**** 76-100) | 4.53 ×10⁻⁶ cm/s | 8.83 | > 1 µM | > 1 µM | 0.101 to 0.5 µM
8 | O=C(Nc1nc2cccc(-c3ccc(C(=O)N4CCC(O)CC4)cc3)n2n1)C1CC1 [Compound 209, Cyclopropanecarboxylic acid {5-[4-(4-hydroxy-piperidine-1-carbonyl)-phenyl]-[1,2,4]triazolo[1,5-a]pyridin-2-yl}-amide] | < 0.1 µM | **** (**** 76-100) | **** (**** 76-100) | 0.5 ×10⁻⁶ cm/s | 36 | > 1 µM | > 1 µM | 0.101 to 0.5 µM
9 | N#CC1CCN(C(=O)c2ccc(-c3cccc4nc(NC(=O)C5CC5)nn34)cc2)CC1 [Compound 210, Cyclopropanecarboxylic acid {5-[4-(4-cyano-piperidine-1-carbonyl)-phenyl]-[1,2,4]triazolo[1,5-a]pyridin-2-yl)-amide] | < 0.1 µM | **** (**** 76-100) | **** (**** 76-100) | 0.45 ×10⁻⁶ cm/s | 76.2 | > 1 µM | 0.001 to 0.5 µM | 0.101 to 0.5 µM
10 | O=C(Nc1nc2cccc(-c3ccc(CN4CCCC(F)C4)cc3)n2n1)C1CC1 (stereo not drawn) [Compound 280, Cyclopropanecarboxylic acid {5-[4-(3-fluoro-piperidin-1-ylmethyl)-phenyl]-[1,2,4]triazolo[1,5-a]pyridin-2-yl}-amide] | < 0.1 µM | *** (*** 51-75) | ** (** 26-50) | 11.4 ×10⁻⁶ cm/s | 1.14 | 0.501 to 1 µM | > 1 µM | 
11 | O=C(Nc1nc2cccc(-c3ccc(CNC4CCS(=O)(=O)C4)cc3)n2n1)C1CC1 (stereo not drawn) [Compound 304, Cyclopropanecarboxylic acid (5-{4-[(1,1-dioxo-tetrahydro-thiophen-3-ylamino)-methyl]-phenyl}-[1,2,4]triazolo[1,5-a]pyridin-2-yl)-amide] | < 0.1 µM |  | **** (**** 76-100) | 0.3 ×10⁻⁶ cm/s | 69.7 | > 1 µM | > 1 µM | < 0.1 µM
12 | O=C(Cc1ccc(-c2cccc3nc(NC(=O)C4CC4)nn23)cc1)Nc1cccnc1 [Compound 316, Cyclopropanecarboxylic acid {5-[4-(pyridin-3-ylcarbamoylmethyl)-phenyl)-[1,2,4]triazolo[1,5-a]pyridin-2-yl}-amide] | < 0.1 µM | *** (*** 51-75) | **** (**** 76-100) | 0.3 ×10⁻⁶ cm/s | 104 | > 1 µM | > 1 µM | 0.101 to 0.5 µM
13 | N#Cc1ccc(COC2CN(C(=O)c3ccc(-c4cccc5nc(NC(=O)C6CC6)nn45)cc3)C2)cc1 [Compound 325, Cyclopropanecarboxylic acid (5-{4-[3-(4-cyano-benzyloxy)-azetidine-1-carbonyl]-phenyl}-[1,2,4]triazolo[1,5-a]pyridin-2-yl)-amide] | < 0.1 µM | *** (*** 51-75) | *** (*** 51-75) | 3.2 ×10⁻⁶ cm/s |  | 0.501 to 1 µM | 0.501 to 1 µM | 0.101 to 0.5 µM
